From patent publication US20140045809A1, “CORROLES FOR NEUROPROTECTION AND NEURORESCUE” (priority 2008, published 2014)
“Also recorded” adds a separate entry of the source.

What was measured:
SH-SY5Y cells = format: cell-based; details: for protection against 6-OHDA compared with porphyrins 1P-Fe and 2P-Mn / 6-OHDA-induced cytotoxicity (MTT, cell death ELISA) / cell mortality, morphology and apoptotic nuclei (GAP-43 immunofluorescence, TUNEL, DAPI): 20 μM; for protection against 6-OHDA compared with porphyrins 1P-Fe and 2P-Mn: 6-OHDA 40 μM, immunofluorescence; for 6-OHDA-induced cytotoxicity (MTT, cell death ELISA) / cell mortality, morphology and apoptotic nuclei (GAP-43 immunofluorescence, TUNEL, DAPI): 30 min before 6-OHDA (40 μM)
Experimental: SH-SY5Y cells were cultured in DMEM-Eagle/F-12(HAM) (1:1) containing 10% FCS. Cells were resuspended in medium containing 2% FCS, seeded in microtiter plates (96 wells) and allowed to attach for 24 h. To examine the neuroprotective effect, cells were pretreated for 30 min with corroles 1C-Fe and 5C-Fe (1-20 μM), and were then exposed to 6-OHDA (60 μM) for further 24 h. For neurorescue assessment, SH-SY5Y cells were first treated with 6-OHDA (60 μM) for 0.5 h, 1.5 h, 3 h and 6 h followed by the addition of compounds 1C-Fe and 5C-Fe (10 μM) for further 24 h.
(§1) SH-SY5Y cells were pretreated with or without corroles 1C-Fe, 2C-Mn and 3C-Mn and porphyrins 1P-Fe and 2P-Mn (20 μM), 30 min before exposure to 6-OHDA (40 μM) for a subsequent 24 h period. Cell viability was evaluated by MTT test and cell death was assessed using the apoptotic cell death detection ELISA kit. For neurorescue, SH-SY5Y cells were first exposed to 40 μM 6-OHDA for 0.5. 1, 1.5 and 3 h, followed by the addition of the compounds 1C-Fe, 2C-Mn and 3C-Mn (20 μM) and incubated for further 24 h. Growth-associated protein (GAP-43) was detected by fluorescence microscopy using a specific primary antibody. Apoptotic nuclei were determined by terminal deoxynucleotidyl transferase-mediated UTP-digoxigenin nick end labeling analysis. 4′,6-Diamidino-2-phenylnidole (DAPI) staining was applied for nuclear labeling. […]

NSC-34 cells = format: cell-based, mouse; details: 20 μM, 24 h; for SIN-1-induced cytotoxicity (MTT and ELISA): 30 min before SIN-1 (700 μM)
Experimental: The neuroprotective effects of the iron corrole 1C-Fe and analogous porphyrin 1P-Fe against H2O2 insult were further examined in the motor neuron cell line, NSC-34. NSC-34 cell is a hybrid neuroblastoma x spinal cord (NSC) cell line that resembles motor neurons, displaying a multipolar neuron-like phenotype. Mouse motoneuronal NSC-34 cells were pretreated with or without the corroles 1C-Fe or 2C-Mn or the structurally-related porphyrins 1P-Fe, 2P-Mn, respectively, 30 min before exposure to H2O2 (200 μM) or SIN-1 (700 μM) for a subsequent 24 h period. Cell viability (FIGS. 18A, 19A) was evaluated by MTT test and cell death (FIGS. 18B, 19B) was assessed using the apoptotic cell death detection ELISA kit. [The graphs in FIGS. 18A-18B and 19A-19B present results expressed as percentage of untreated control.

[1] = Catalytic decomposition of peroxynitrite (PN), stopped-flow kinetics (Table 1); format: biochemical
Experimental: (§2) SOD activity (enzyme-like catalytic decomposition of superoxide anion radical) of the corroles 1C-Fe, 6C-Fe, 1C-Mn, 1C-Cu, 2C-Mn and 3C-Mn was examined via the cytochrome C assay. The catalytic rate constants for decomposition of peroxynitrite (PN) by the newly prepared iron corrole 6C-Fe and manganese corrole 3C-Mn were determined via stopped-flow kinetics as previously described for corroles 1C-Fe, 1C-Mn, and 2C-Mn (Mahammed and Gross, 2006; Gershman et al., 2007). These tests are performed in order to estimate how electronic and structural variables affect reactivity, which is a crucial factor for design of new complexes.

RIN-m cells [2] = assay: Protection of RIN-m cells against SIN-1 toxicity (MTT); format: cell-based, rat; details: 24 h; for protective effect against SIN-1 induced toxicity (MTT), comparative: 0.1-20 μM, 30 min before SIN-1 (800 μM)
Experimental: INS-1E cells or RIN-m cells were cultured in RPMI with low serum content (2% FCS), placed in microtiter plates (96 wells) at a density of 2.5×10^4 cells/well and allowed to attach for 24 h before treatment. Corroles 1C-Fe and 5C-Fe (10 μM) were added 30 min prior to insult with the nitric oxide donor SIN-1 (500 or 600 μM) for a subsequent 24 h period. Cell viability was evaluated by a colorimetric assay for mitochondrial function using 3-(4,5-dimethylthiazol-2-yl)-2,5-diphenyltetrazolium bromide (MTT test), and expressed as percentage of untreated control. Values higher than 100% reflect increased mitochondrial activity induced by the drug. The results represent the mean±SEM of three independent experiments performed under the same conditions.
Insulin-secreting RIN-m cells were incubated in RPMI with low serum content (2% FCS) and placed in microtiter plates (96 wells) at a density of 2.5×10^4 cells/well and allowed to attach for 24 h before treatment. Cells were treated with corroles 1C-Fe, 1C-Mn or 2C-Mn or porphyrins 1P-Fe or 2P-Mn, in various concentrations (0.1-20 μM), for 30 min prior to insult with SIN-1 (800 μM) for a subsequent 24 h period. Cell viability was evaluated by MTT test and expressed as percentage of untreated control.

cleaved caspase-3 = assay: Cleaved caspase-3 level in 6-OHDA-treated SH-SY5Y cells, immunofluorescence; format: cell-based, human; details: 20 μM, 30 min before 6-OHDA (40 μM), 24 h
Experimental: as §1
Since 6-OHDA is also known to induce apoptosis in various cell types, including SH-SY5Y (von Coelln et al. 2001; Nie et al. 2002; Shimizu et al. 2002; Jordan et al. 2004), we further tested effect of corroles on the levels of the apoptotic marker, cleaved caspase-3, a major executer of the mitochondrial intrinsic pathway of apoptosis.

[3] = SOD activity (catalytic decomposition of superoxide anion radical), cytochrome C assay; format: biochemical
Experimental: as §2

RIN-m cells [4] = assay: Protection of RIN-m beta cells against H2O2 toxicity (MTT); format: cell-based, rat; details: for cytoprotective effect against H2O2-induced toxicity: H2O2 150 μM
Experimental: Two insulin-secreting beta cell lines, rat insulinoma (INS-1E) and RIN-m cells, were used to examine the protective effect of corrole 1C-Fe. The cells were cultured at 37° C., in a humid 5% CO2, 95% air environment in regular RPMI-1640 medium (Invitrogen) supplemented with 5% fetal calf serum (FCS).
After 2 days of culture, RIN-m cells (5×10^4 cells/well in 96-well plates) were treated with corrole 1C-Fe (1-50 μM) before addition of 35 μM of H2O2. Cell viability was evaluated by a colorimetric assay for mitochondrial function estimation using the MTT test as previously described (Gassen et al., 1998) and expressed as percentage of control.
RIN-m cells were grown as described in Example 5. After 3 days of culture, RIN-m cells (2.5×10^4 cells/well in 96-well plates) were treated with corroles 1C-Fe or 5C-Fe or porphyrin 1P-Fe (1 and 20 μM), added 30 min prior to treatment with 35 μM H2O2 and further incubated for 24 h. Cell injury was evaluated by MTT test. […] […].
Protective effect of iron(III) corrole complexes against H2O2-induced toxicity (150 μM) was compared to that of manganese(III) corroles and related porphyrin. […].

Row | SMILES | protection against 6-OHDA compared with porphyrins 1P-Fe and 2P-Mn (SH-SY5Y cells) | 6-OHDA-induced cytotoxicity (MTT, cell death ELISA) (SH-SY5Y cells; 24 h) | cell mortality, morphology and apoptotic nuclei (GAP-43 immunofluorescence, TUNEL, DAPI) (SH-SY5Y cells; 24 h) | neuroprotective effect against 6-OHDA-induced toxicity (SH-SY5Y cells; 1-20 μM, 30 min before 6-OHDA (60 μM), 24 h) | neurorescue after 6-OHDA insult (SH-SY5Y cells; 6-OHDA (60 μM) for 0.5, 1.5, 3 and 6 h, then 10 μM, 24 h) | protection against H2O2-mediated cytotoxicity (MTT and ELISA) (NSC-34 cells; 30 min before H2O2 (200 μM)) | SIN-1-induced cytotoxicity (MTT and ELISA) (NSC-34 cells) | kcat, catalytic rate constant for decomposition of PN [1] [M⁻¹ s⁻¹] | protective effect against SIN-1 induced toxicity (MTT) (RIN-m cells [2]; 10 μM, 30 min before SIN-1 (500 or 600 μM)) | protective effect against SIN-1 induced toxicity (MTT), comparative (RIN-m cells [2]) | 6-OHDA-induced increase of cleaved caspase-3 (cleaved caspase-3) | IC50 [3] [µM] | protective effect against H2O2 toxicity relative to porphyrin 1P-Fe (MTT) (RIN-m cells [4]; 20 μM, 30 min before 35 μM H2O2, 24 h) | protective effect against H2O2 toxicity (MTT) (RIN-m cells [4]; 1-50 μM before 35 μM H2O2) | cytoprotective effect against H2O2-induced toxicity (RIN-m cells [4])
1 | O=S(=O)(O)c1cc2[n]3c1C(c1c(F)c(F)c(F)c(F)c1F)=C1C=CC4=[N+]1[Fe-]31[n]3c(cc(S(=O)(=O)O)c3-2)C(c2c(F)c(F)c(F)c(F)c2F)=c2ccc([n]21)=C4c1c(F)c(F)c(F)c(F)c1F (stereo not drawn) [1C-Fe, 2,17-bis(sulfonato)-5,10,15-tris(pentafluorophenyl)-corrolato iron(III)] | remarkable superiority over the porphyrins | significantly attenuated 6-OHDA-induced cytotoxicity | significantly attenuated 6-OHDA-induced cell mortality, improved cell morphology and reduced the number of apoptotic nuclei | dose-dependent neuroprotective effect | instigated neurorescue | significant protection | significantly attenuated | 2e+06 | marked protective effect | successful; also recorded: exhibits a greater protective effect | abolished partially | 1.64 | exhibit a greater protective effect | significant protective effect | showed cytoprotective effects
2 | C[n+]1ccc(C2=C3C=CC4=[N+]3[Mn-]35[n]6c2ccc6-c2ccc([n]23)C(c2cc[n+](C)cc2)=c2ccc([n]25)=C4c2c(F)c(F)c(F)c(F)c2F)cc1.[I-].[I-] (stereo not drawn) [2C-Mn, 5,15-bis(4-N-methyl-pyridilium)-10-pentafluorophenyl-corrolato manganese(III) diiodide salt] | remarkable superiority over the porphyrins | significantly attenuated 6-OHDA-induced cytotoxicity | significantly attenuated 6-OHDA-induced cell mortality, improved cell morphology and reduced the number of apoptotic nuclei |  |  |  | significantly attenuated | 400000 |  | successful; also recorded: unequivocally in favor of the former; also recorded: improved protective effect | totally | 1.52 |  |  | totally inefficient; also recorded: inefficiency
